The values below come from ChEMBL document CHEMBL1201862, “PubChem BioAssay data set” (2004).

Calls of active or inactive are those of the source.

The target of assay [1] is T1, Insulin-degrading enzyme (Homo sapiens, UniProt P14735).
T1 sequence (P14735 whole entry): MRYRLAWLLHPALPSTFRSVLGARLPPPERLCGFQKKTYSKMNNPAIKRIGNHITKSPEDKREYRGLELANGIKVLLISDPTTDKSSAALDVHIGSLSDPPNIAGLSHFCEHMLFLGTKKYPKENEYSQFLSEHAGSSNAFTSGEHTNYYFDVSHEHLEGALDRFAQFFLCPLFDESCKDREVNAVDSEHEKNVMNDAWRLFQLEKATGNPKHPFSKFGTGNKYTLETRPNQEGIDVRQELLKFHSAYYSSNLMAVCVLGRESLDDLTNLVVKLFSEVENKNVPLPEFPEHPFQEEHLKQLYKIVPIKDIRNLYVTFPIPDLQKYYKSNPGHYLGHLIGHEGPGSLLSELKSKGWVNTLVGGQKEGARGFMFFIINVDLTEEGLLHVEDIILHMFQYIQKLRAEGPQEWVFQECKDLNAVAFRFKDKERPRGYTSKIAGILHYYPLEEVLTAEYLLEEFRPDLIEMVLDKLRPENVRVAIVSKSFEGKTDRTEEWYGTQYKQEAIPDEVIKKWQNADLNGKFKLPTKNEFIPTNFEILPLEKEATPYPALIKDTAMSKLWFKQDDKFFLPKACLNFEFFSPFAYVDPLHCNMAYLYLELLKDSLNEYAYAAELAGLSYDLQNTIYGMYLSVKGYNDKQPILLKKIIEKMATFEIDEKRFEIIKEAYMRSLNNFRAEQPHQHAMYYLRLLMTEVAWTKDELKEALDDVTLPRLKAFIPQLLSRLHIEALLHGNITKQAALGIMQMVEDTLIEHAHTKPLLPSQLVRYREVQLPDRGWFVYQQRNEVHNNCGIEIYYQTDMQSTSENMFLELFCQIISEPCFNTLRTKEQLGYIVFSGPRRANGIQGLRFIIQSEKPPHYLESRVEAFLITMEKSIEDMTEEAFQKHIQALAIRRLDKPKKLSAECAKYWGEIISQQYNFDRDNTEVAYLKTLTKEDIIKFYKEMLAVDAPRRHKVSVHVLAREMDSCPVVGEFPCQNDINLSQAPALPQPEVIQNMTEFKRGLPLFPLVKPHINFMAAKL
Put plainly: activators of endogenous IDE in HEK cells, dose response, cell-based, fluorescence polarization (AID 588439). Type of assay: functional. (In fluorescence polarisation assays a small probe gives low polarisation when free and higher when bound to something large.)

The next assay deals with T2, ORF 73 (Human herpesvirus 8, UniProt O40947).
T2 sequence (O40947 whole entry): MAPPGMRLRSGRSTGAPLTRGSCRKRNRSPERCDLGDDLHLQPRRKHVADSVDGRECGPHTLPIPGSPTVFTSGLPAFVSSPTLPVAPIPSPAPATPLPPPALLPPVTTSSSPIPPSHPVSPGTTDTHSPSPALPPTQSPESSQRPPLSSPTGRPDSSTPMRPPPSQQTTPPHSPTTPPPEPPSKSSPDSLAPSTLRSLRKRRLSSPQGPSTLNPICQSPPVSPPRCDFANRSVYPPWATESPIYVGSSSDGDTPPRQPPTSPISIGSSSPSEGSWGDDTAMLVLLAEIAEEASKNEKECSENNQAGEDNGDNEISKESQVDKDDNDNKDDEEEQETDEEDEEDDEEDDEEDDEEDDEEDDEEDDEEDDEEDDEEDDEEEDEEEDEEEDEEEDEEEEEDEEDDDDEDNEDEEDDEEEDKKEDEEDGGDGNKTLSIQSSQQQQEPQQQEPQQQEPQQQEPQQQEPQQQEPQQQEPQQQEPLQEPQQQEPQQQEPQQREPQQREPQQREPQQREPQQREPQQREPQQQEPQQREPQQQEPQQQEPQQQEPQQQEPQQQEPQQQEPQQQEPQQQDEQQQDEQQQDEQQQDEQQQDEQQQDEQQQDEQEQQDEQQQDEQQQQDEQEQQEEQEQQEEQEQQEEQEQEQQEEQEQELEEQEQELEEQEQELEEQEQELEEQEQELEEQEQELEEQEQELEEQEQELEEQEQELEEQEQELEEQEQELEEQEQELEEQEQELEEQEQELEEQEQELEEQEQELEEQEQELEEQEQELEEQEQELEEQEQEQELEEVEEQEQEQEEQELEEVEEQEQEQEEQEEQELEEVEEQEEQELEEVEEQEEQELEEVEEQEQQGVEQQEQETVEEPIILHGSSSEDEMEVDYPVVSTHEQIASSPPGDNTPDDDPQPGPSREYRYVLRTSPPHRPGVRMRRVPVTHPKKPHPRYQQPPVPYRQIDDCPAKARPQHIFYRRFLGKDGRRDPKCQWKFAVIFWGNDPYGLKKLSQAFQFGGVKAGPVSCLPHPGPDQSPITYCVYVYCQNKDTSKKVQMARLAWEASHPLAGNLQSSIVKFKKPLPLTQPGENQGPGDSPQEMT
Kind of assay: inhibitors of C-LANA binding to LBS DNA, dose response, biochemical, fluorescence polarization, cherry-picked samples (AID 504725).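 Also: fluorescence polarization of a labeled DNA duplex reporting LANA DNA binding; potency is for inhibitors that block LANA binding to the DNA.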 More on the design: species or system Human gammaherpesvirus 8.

The next assay concerns the target Protein S100-A4 (Homo sapiens, UniProt P26447). Put plainly: S100A4-myosin IIA binding inhibitor potency, dose response, biochemical, fluorescence polarization, cherry-picked hits (AID 687001). Type of assay: functional.
The subject of a further assay is HeLa. Kind of assay: HeLa cell cytotoxicity, dose response, cytotoxicity control, 24 h, cherry-picked samples (AID 504726).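 Also: potency for cytotoxicity as loss of luminescence signal.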 It is filed as functional, cell-based. The note with it: Homo sapiens.
In assay [2] the test system is HEK293. Put plainly: HEK cell cytotoxicity by LDH release, dose response, cytotoxicity control for IDE activator project, fluorescence, HEK cells (AID 588440).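 Also: cytotoxicity by LDH release measuring loss of membrane integrity.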 It is filed as functional, cell-based. The note with it: Homo sapiens.
The subject of assay [3] is HEK293. Put plainly: optical interference in Abeta FP readout, dose response, artefact control for IDE activator project, biochemical, fluorescence polarization (AID 588442). Type of assay: functional, cell-based. Conditions: Homo sapiens.
For assay [4], the target named is T1, Insulin-degrading enzyme. Kind of assay: activators of recombinant IDE enzyme, dose response, counter-screen for IDE activator project, biochemical, fluorescence polarization (AID 588681). (A counterscreen serves to expose hits that act by an unwanted route or on another target.)
Assay [5] addresses Oxysterols receptor LXR-beta (Homo sapiens, UniProt P55055). Type of assay: functional, cell-based.
Another assay concerns H9c2. Put plainly: cells. Type of assay: functional, cell-based. The note with it: Rattus norvegicus, H9c2, Myocardium.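 Also: confirmatory concentration-response retest of ultra-high-throughput screening hits for modulation of myocardial damage; cell death induced by hydrogen peroxide oxidative stress; compound pretreatment for 60 min then peroxide exposure for 2 h; potency is for protecting the cells against peroxide damage rather than for killing them.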
In a further assay the target is Albumin (Bos taurus, UniProt P02769). Put plainly: Counterscreen for inhibitors of T-cell receptor (TCR)-CD3 interaction: Fluorescence-based biochemical high throughput dose response assay to identify inhibitors of T-cell receptor (TCR)-CD3 interaction using a TAMRA-labeled BSA probe. Type of assay: functional.
A short description of assay [6]: LMP1-driven NF-kB reporter inhibition, dose response, cell-based, luciferase reporter, luminescence, dry powder, set 2 (AID 624376). It is filed as functional.
Assay [7] in a line: HEK293 cell viability, dose response, counter-screen for EBV LMP1 inhibitor project, dry powder, set 2 (AID 624374). It is filed as functional.
In assay [8] the target is Tyrosyl-DNA phosphodiesterase 2 (Homo sapiens, UniProt O95551). Put plainly: human TDP2 enzyme inhibitors, dose response, biochemical, epi absorbance, IC50 (AID 743297).
For the next assay, the target named is T3, Protein RecA (Mycobacterium tuberculosis, UniProt P9WHJ3).
T3 sequence (P9WHJ3 whole entry): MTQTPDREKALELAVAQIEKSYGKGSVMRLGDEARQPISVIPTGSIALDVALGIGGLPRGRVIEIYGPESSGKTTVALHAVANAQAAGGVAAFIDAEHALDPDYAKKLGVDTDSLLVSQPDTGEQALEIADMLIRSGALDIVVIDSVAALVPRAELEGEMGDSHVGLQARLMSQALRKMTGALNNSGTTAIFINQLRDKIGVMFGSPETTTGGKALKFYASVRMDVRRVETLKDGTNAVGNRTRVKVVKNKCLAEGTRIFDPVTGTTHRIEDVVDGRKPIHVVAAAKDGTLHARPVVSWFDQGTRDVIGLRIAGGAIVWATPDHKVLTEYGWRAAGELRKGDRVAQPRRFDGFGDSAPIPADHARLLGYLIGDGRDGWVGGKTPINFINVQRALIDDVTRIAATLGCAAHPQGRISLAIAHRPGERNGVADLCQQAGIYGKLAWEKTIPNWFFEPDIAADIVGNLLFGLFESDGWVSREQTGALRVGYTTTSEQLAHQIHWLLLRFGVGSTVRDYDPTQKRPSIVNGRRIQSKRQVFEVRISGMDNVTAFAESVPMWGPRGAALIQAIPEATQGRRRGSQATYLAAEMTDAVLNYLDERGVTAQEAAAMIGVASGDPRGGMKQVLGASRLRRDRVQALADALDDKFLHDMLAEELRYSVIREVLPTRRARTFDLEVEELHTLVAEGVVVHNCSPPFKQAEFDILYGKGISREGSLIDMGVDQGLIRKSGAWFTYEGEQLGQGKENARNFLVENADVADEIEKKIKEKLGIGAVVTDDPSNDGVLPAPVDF
Kind of assay: Fluorescence Cell-Free Homogeneous Dose Retest to Identify Inhibitors of RecA-Intein Splicing Activity. [Related pubchem assays (depositor defined):AID2097, AID2223, AID489010, AID492950]. Type of assay: functional.

For assay [9], the target named is T4, Replicative DNA helicase DnaB (Mycobacterium tuberculosis, UniProt P9WMR3).
T4 sequence (P9WMR3 whole entry): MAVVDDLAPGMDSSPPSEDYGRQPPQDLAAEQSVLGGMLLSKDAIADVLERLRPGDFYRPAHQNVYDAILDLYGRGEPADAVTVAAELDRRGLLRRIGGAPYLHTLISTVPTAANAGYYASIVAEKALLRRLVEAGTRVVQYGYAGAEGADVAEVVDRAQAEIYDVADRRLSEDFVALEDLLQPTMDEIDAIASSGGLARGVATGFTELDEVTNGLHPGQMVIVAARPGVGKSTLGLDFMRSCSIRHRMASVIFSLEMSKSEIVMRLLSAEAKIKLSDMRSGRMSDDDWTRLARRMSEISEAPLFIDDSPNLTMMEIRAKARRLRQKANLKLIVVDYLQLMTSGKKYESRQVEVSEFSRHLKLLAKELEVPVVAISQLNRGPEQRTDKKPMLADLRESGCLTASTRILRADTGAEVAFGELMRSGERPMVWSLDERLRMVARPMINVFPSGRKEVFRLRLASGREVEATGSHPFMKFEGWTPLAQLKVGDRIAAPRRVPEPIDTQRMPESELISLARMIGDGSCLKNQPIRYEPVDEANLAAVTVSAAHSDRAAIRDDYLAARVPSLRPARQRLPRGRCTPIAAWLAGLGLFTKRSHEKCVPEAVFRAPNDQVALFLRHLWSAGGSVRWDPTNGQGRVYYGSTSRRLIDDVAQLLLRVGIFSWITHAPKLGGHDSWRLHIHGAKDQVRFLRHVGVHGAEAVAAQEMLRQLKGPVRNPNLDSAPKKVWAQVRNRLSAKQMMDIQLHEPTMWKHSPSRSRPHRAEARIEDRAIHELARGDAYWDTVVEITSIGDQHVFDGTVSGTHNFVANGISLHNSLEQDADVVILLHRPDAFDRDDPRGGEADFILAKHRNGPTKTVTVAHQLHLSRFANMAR
Kind of assay: DnaB intein splicing inhibitors, dose response, biochemical, cell-free fluorescence (AID 449749). Type of assay: functional.

Assay [10] is described as follows: Late stage assay provider results from the probe development effort to identify selective inhibitors of heat shock protein 90 (HSP90): Absorbance-based cell proliferation assay in MCF7 cells. Type of assay: functional.
Assay [11] can be described thus: Late stage assay provider results from the probe development effort to identify selective inhibitors of heat shock protein 90 (HSP90): Absorbance-based cell proliferation assay in SKBR3 cells. Type of assay: functional. The note with it: SK-BR-3.
Assay [12] can be described thus: A Cell-Based Confirmatory Screen for Compounds that Inhibit VEEV, TC-83 (8). It is filed as functional.
Assay [13] is described as follows: Keap1 Kelch-Nrf2 peptide binding inhibitors, dose response, biochemical, fluorescence polarization, dry powder, set 3 (AID 651806).
Assay [14] has as its target Metabotropic glutamate receptor 3 (Rattus norvegicus, UniProt P31422). Kind of assay: mGlu3 negative allosteric modulator potency, dose response, HEK/GIRK cells, thallium flux, rat (AID 651839). Type of assay: functional.

Chain of Protein S100-A4 (P26447 whole entry): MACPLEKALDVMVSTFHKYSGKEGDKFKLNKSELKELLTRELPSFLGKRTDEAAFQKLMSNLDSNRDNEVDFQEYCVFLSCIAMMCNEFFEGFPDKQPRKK
Chain of Oxysterols receptor LXR-beta (P55055 whole entry): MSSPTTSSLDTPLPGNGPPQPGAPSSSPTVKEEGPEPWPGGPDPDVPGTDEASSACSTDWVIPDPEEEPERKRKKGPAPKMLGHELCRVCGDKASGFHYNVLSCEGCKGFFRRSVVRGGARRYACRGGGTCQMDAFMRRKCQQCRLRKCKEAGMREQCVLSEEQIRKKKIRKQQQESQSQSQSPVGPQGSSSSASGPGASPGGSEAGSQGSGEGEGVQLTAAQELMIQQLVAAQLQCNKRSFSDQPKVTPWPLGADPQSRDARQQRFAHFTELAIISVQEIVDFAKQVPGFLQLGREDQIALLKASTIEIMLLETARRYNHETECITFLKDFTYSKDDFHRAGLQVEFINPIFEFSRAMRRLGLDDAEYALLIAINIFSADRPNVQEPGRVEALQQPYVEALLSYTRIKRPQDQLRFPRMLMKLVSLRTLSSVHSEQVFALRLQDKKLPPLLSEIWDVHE
Chain of Metabotropic glutamate receptor 3 (P31422 whole entry): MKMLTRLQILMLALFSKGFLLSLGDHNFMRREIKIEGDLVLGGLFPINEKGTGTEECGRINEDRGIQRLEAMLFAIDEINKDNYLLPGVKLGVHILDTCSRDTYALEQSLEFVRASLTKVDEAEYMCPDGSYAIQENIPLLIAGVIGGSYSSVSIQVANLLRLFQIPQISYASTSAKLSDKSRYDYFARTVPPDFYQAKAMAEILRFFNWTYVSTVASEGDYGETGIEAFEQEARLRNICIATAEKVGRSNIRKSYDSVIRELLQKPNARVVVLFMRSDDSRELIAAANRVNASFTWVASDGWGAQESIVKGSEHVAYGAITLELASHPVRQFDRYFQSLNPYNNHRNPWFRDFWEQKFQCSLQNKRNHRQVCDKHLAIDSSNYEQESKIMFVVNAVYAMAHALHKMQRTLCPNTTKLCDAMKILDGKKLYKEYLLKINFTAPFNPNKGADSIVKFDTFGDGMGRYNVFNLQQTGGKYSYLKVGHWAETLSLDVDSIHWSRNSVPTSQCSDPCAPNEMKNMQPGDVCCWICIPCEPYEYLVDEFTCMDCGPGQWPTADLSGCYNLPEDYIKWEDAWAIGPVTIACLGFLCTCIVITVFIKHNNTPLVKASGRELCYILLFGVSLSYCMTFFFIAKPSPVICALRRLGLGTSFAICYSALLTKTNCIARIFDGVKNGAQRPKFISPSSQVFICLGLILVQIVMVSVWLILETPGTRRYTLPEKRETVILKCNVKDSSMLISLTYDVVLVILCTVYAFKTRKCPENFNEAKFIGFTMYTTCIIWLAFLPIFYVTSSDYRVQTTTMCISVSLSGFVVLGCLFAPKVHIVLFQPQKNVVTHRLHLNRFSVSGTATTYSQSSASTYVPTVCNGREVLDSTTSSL
Chain of Albumin (P02769 whole entry): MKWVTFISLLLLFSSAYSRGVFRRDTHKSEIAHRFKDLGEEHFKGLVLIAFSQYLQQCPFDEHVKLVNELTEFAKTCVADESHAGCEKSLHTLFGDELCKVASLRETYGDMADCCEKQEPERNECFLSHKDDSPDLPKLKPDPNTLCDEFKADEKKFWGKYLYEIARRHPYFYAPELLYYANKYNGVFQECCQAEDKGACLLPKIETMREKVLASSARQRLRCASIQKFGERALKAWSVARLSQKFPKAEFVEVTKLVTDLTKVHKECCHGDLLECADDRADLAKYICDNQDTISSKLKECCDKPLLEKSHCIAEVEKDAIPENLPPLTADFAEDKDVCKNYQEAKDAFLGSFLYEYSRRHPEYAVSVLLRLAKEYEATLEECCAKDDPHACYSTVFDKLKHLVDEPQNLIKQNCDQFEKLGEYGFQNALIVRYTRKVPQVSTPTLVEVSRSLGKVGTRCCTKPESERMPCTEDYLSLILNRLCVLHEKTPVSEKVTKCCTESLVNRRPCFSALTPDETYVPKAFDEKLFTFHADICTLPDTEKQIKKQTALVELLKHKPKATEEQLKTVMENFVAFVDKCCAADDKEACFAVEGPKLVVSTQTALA
Chain of Tyrosyl-DNA phosphodiesterase 2 (O95551 whole entry): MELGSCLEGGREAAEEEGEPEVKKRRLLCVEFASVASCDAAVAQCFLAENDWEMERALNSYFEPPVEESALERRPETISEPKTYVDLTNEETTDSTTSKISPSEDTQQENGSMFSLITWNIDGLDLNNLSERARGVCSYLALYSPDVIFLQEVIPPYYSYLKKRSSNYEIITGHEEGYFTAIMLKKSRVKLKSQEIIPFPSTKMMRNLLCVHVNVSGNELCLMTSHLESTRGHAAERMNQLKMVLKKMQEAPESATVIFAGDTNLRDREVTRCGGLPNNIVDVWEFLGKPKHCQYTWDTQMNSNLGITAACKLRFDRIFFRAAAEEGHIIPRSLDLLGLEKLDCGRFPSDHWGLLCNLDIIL

What is called EC50 is the midpoint of the concentration-response curve. As usually defined, the AC50 is the concentration at which the activity in the assay is half-maximal. The IC50 is the concentration at which inhibition is half-maximal. On to `COc1ccc2c3c(cccc13)C(=O)CC2`, for which the EC50 at Insulin-degrading enzyme [1] is > 54.7 µM (inactive); with HEK293 [3], > 18.6 µM (inactive); on Insulin-degrading enzyme [4], > 54.7 µM (inactive). The AC50 is 6.76 µM (active) on ORF 73, 7.21 µM (active) at Protein S100-A4 and 31.7 µM (active) in the assay with HeLa. Moreover, the IC50 in the assay on HEK293 [2] is > 89.2 µM (inactive).
Consider `O=C(O)c1cc(-c2cccs2)[nH]n1`, for which, in [5], the EC50 was > 67.6 µM (inactive).
With `COC(=O)Cn1/c(=N/C(=O)c2cc(-c3cccs3)nc3ccccc23)sc2cc(S(N)(=O)=O)ccc21`, the values for the IC50 with H9c2 and at Albumin were 28.2 µM (active) and > 94.1 µM (inactive), respectively.
Regarding `CCC(=O)N1Cc2cc(C(=O)Nc3nccs3)nc(-c3cccc(-c4ccccc4OC)c3)c2[C@H]1CCO`, the figures for the AbsAC35 in assay [6] and in assay [7] were 49.1 µM and 247.5 µM, respectively.
For the molecule `Cc1cc(=O)n(C2CCS(=O)(=O)C2)[nH]1` (stereo not given), the IC50 in [8] was > 128 µM (inactive). Further, the 50% effective concentration (EC50) at Protein RecA was 1.91 µM (active). For the same molecule, the AC50 in assay [9] is 3.43 µM (active).
Consider `COc1ccccc1NC(=O)c1cc(=O)c(OC)c[nH]1`, for which the IC50 in assay [10] and in [11] was > 100 µM (inactive) each time.
In the case of `CN1CCN(C)/C(=N/c2ccc(F)cc2C(=O)Nc2ccccc2)C1`, the IC50 in [12] is 6.39 µM (active).
On to `O=C(O)Cc1ccccc1C(=O)N1CCc2ccccc2[C@H]1CN1C(=O)c2ccccc2C1=O`, for which, in assay [13], the AC50 was 61.4 µM (active).
With `COc1ccc(C#Cc2ccc(C(=O)N3CCC(OC)C3)cc2)cc1` (stereo not given), the IC50 in assay [14] was 10.7 µM (active).
